Here are results for 13 compounds from patent US6753338B2, “Methods for treating hypertension, angina, and congestive heart failure using of optically pure (-) amlodipine” (Sepracor Inc., priority 1991, dated 2004).

Molecules are shown by their SMILES.

For one test, the system named is β-adrenergic.
Experiment: not given
Conditions: L-form versus D-enantiomer; cited from earlier work.
On to `CC(C)NC[C@H](O)COc1cccc2ccccc12`, for which the “potency relative to the D-enantiomer” value is given as 100 times.

For the next test, the system named is potassium-depolarized rat aorta.
Experiment: not given
Conditions: in vitro; cited from earlier work.
Turning to `CCOC(=O)C1=C(COCCN)NC(C)=C(C(=O)OC)C1c1ccccc1Cl` (single isomer, unassigned; isomer 3) [(−) isomer, 3-ethyl 5-methyl (−)-2-[2-aminoethoxy)methyl]-4-(2-chlorophenyl)-1,4-dihydro-6-methyl-3,5-pyridine dicarboxylate], the “activity relative to the racemic mixture in antagonizing calcium-induced constriction” value is “twice as active as the racemic mixture”.

Another test deals with K+-depolarized isolated guinea pig ileal segment. In words: Calcium antagonism, guinea pig ileum (in vitro). Conditions: Cavia porcellus; reference agents; K+-depolarized ileal segment in Ca-free physiological salt solution, 37° C., added calcium 20 μg/ml CaCl; read-out: ED100 (inhibition of contractile response to added calcium). The source says:
Calcium Antagonism, Guinea Pig Ileum (in Vitro):
Regarding `CN1CCC(=C2c3ccccc3C=Cc3ccccc32)CC1` [cyproheptadine], the IC100 amounted to 0.025 µg/mL. For the compound `COc1ccc([C@@H]2Sc3ccccc3N(CCN(C)C)C(=O)[C@@H]2OC(C)=O)cc1` [diltiazem], the IC100 amounted to 0.01 µg/mL. With `CN(C)CCOC(c1ccccc1)c1ccccc1` [diphenhydramine], the IC100 was 1 µg/mL. Regarding `Fc1ccc(C(c2ccc(F)cc2)N2CCN(C/C=C/c3ccccc3)CC2)cc1` [flunarizine], the IC100 was 0.1 µg/mL. The same measure, in the same setting: then `COc1ccc(CN(CCN(C)C)c2ccccn2)cc1` [mepyramine], with > 5 µg/mL; and `COc1ccc(Cc2nccc3cc(OC)c(OC)cc23)cc1OC` [papaverine], with 4 µg/mL. For the compound `CC(CN1c2ccccc2Sc2ccccc21)N(C)C` (stereo not shown) [promethazine], the IC100 was found to be 0.25 µg/mL. For the compound `CC(C)NCC(O)COc1cccc2ccccc12` (stereo not shown) [propranolol], the IC100 worked out at 4 µg/mL.

Still in this test, the particulars now being: reference agents; K+-depolarized ileal segment in Ca-free physiological salt solution, 37° C., added calcium 20 μg/ml CaCl.
For the compound `C(=C\c1ccccc1)/CN1CCN(C(c2ccccc2)c2ccccc2)CC1` [cinnazrizine], the ED100 (inhibition of contractile response to added calcium) is 1 µg/mL.

On to `CC(C)[N+]1(C)[C@@H]2CC[C@H]1CC(OC(=O)C(CO)c1ccccc1)C2.[Br-]` (stereo partly shown) [ipratropium bromide], for which the ED100 (inhibition of contractile response to added calcium) was > 2 µg/mL. Same read-out and setting: then `CC(COc1ccccc1)NC(C)C(O)c1ccc(O)cc1` (stereo not shown) [isoxuprine], with 4 µg/mL.
